Tested on: PI3-kinase
Assay: NanoBRET screening of ARCS in transfected HEK293 cells with washout (covalent binding to and inhibition of PI3-kinase)
Assay type: cell-based
Details: NanoBRET binding assay; key headed Percent inhibition
Method: Human embryonic kidney 293-H (HEK 293, Gibco 293-H, #11631017) cell lines are maintained in Dulbecco's Modified Eagle Medium, high glucose, pyruvate (DMEM, Gibco, #11995065) supplemented with 10% fetal bovine serum (FBS, Gibco, #10082147) and 1× penicillin-streptomycin (100× solution, Gibco, #15140148) at 37° C. and 5% CO2 in a water-saturated incubator. Cell are trypsinized using 0.05% or 0.25% Trypsin-EDTA solution (Trypsin-EDTA, phenol red, Gibco, #25200056 (0.25%) or #25300054). Opti-MEM media supplemented with 10% fetal bovine serum (Opti-MEM I reduced serum media, no phenol red, Gibco, #11058021) is used for culturing cells overnight for NanoBRET readout experiments.
HEK293 cells are cultivated appropriately prior to assay. The medium from cell flask is removed via aspiration, washed 1× with PBS followed by aspiration, trypsinized, and cells are allowed to dissociate from the flask. Trypsin is neutralized using growth medium and cells are pelleted via centrifugation at 200×g for 5 minutes. The medium is aspirated and the cells are resuspended into a single cell suspension using Opti-MEM I supplemented with 10% FBS. The cell density is adjusted to 2×10^5/mL in Opti-MEM I supplemented with 10% FBS in a sterile, conical tube. The cells are transfected and aliquoted directly in a 96-well plate for the NanoBRET assay the next day, and therefore, the cells are cultured overnight in Opti-MEM. The cells are also transfected in bulk and dispensed into a 96-well plate to allow cells to adhere to the plate overnight, thereby enabling washout studies.
The lipid:DNA complexes are prepared as follows:
A 10 μg/mL solution of DNA is prepared in Opti-MEM without serum. This solution contains the following ratios of carrier DNA and DNA encoding NanoLuc fused to the biological target. Serial dilution steps may be warranted to accurately dilute the NanoLuc fusion DNA. Added, in order, the following reagents to a sterile polystyrene test tube: 1 mL of Opti-MEM without phenol red; 9.0 μg/mL of carrier DNA; 1.0 μg/mL of NanoLuc fusion DNA (for some targets, the amount is less). The reagents are mixed thoroughly.
30 μL of FuGENE HD is added into each mL of DNA mixture to form lipid:DNA complex. […] It is mixed by pipetting up and down 5-10 times and incubated at room temperature for 20 minutes to allow complexes to form. 1 part (e.g. 1 mL) of lipid:DNA complex is mixed with 20 parts (e.g. 20 mL) of HEK293 cells in suspension at 2×10^5/mL and mixed gently by pipetting up and down 5 times in a sterile, conical tube. Larger or smaller bulk transfections are scaled accordingly, using this ratio. […] is dispensed into a sterile, tissue-culture treated 96-well plate (20,000 cells/well), and incubated at least 16 hours to allow expression. The cells are incubated in a 37° C.+5% CO2 incubator for >16 hrs. A serially diluted inhibitor or test compound is prepared at 100× final concentration in 100% DMSO. The serially diluted inhibitor stock is prepared in PCR plates. 1 μL per well of 100× serially diluted inhibitor/test compound is added to the cells in 96-well plates that have been transiently transfected overnight and mixed by tapping the plate by hand. The plate is incubated at 37° C.+5% CO2 incubator overnight. A 1× solution of substrate mix (500× stock) and appropriate concentration of tracer is prepared in Opti-Mem. The cells are washed by setting a plate washer to the 96 well plate 5× in PBS pH 7.4 by adding 200 μL PBS each time. The cells are incubated at 37° C. for 2 hours. […], of the 1× Substrate-Tracer solution is added and the 96 well plate is gently tapped to mix. The plate on plate reader is read every hour for the next 6 hours. The binding assays of some ARCS are shown below. Compound 1-XXXII formed a covalent bond with PI3-kinase from about 5% to 20%. ARCS selected from the group consisting of Compounds 1-101, 1-102, 1-113, 1-114, 1-119, 1-120, 1-125 and 1-126 formed a covalent bond with PI3-kinase from about 80% to 100%. […]

Row | SMILES | Binding
1 | COC(=O)Nc1cc(C(F)(F)F)c(-c2nc(N3CCOCC3)c3cc(CN4CCN(C(=O)CCC(=O)C=C(C)C)CC4)cn3n2)cn1 [Compound 1-113] | +++ (>80%)
2 | COC(=O)Nc1cc(C(F)(F)F)c(-c2nc(N3CCOCC3)c3cc(CN4CCN(C(=O)CNC(=O)C=C(C)C)CC4)cn3n2)cn1 [Compound 1-114] | +++ (>80%)
3 | CC#CC(=O)CCC(=O)N1CCN(Cc2cc3c(N4CCOCC4)nc(-c4cnc(NC(=O)OC)cc4C(F)(F)F)nn3c2)CC1 [Compound 1-125] | +++ (>80%)
4 | C=CC(=O)NCC(=O)N1CCN(Cc2cc3c(N4CCOCC4)nc(-c4cnc(NC(=O)OC)cc4C(F)(F)F)nn3c2)CC1 [Compound 1-102] | +++ (>80%)
5 | COC(=O)Nc1cc(C(F)(F)F)c(-c2nc(N3CCOCC3)c3cc(CN4CCN(C(=O)CCC(=O)/C=C/CN(C)C)CC4)cn3n2)cn1 [Compound 1-119] | +++ (>80%)
6 | C=CC(=O)Nc1ccc(C(=O)N2CCN(Cc3cc4c(N5CCOCC5)nc(-c5cnc(NC(=O)OC)cc5C(F)(F)F)nn4c3)CC2)cc1 [Compound 1-171] | ++ (50-80%)
7 | COC(=O)Nc1cc(C(F)(F)F)c(-c2nc(N3CCOCC3)c3cc(CN4CCN(C(=O)CNC(=O)/C=C/CN(C)C)CC4)cn3n2)cn1 [Compound 1-120] | +++ (>80%)
8 | CC#CC(=O)NCC(=O)N1CCN(Cc2cc3c(N4CCOCC4)nc(-c4cnc(NC(=O)OC)cc4C(F)(F)F)nn3c2)CC1 [Compound 1-126] | +++ (>80%)
9 | C=CC(=O)Nc1ccc(CCNCc2cc3c(N4CCOCC4)nc(-c4cnc(NC(=O)OC)cc4C(F)(F)F)nn3c2)cc1 [Compound 1-172] | ++ (50-80%)
10 | C=CC(=O)CCC(=O)N1CCN(Cc2cc3c(N4CCOCC4)nc(-c4cnc(NC(=O)OC)cc4C(F)(F)F)nn3c2)CC1 [Compound 1-101] | +++ (>80%)

From patent publication US12653895B2, “Therapeutic conjugates” (Totus Medicines Inc., priority 2019, dated 2026)
